Measured values as given in patent US11427549B2, “Pyrimidinyloxy benzo-fused compounds as herbicides” (FMC Corporation, priority 2017, dated 2022).

Assays:
[1] = tested on: wheat (Triticum aestivum); experiment: Test A postemergence, wheat; assay type: in vivo; settings: Triticum aestivum, post-emergence, 240 h, 0 to 100 scale (0 no effect, 100 complete control), read-out: Plant response rating, Wheat; for plant injury at 31 g/ha: 31 g ai/ha; for plant injury at 125 g/ha: 125 g ai/ha
[2] = tested on: pigweed (Amaranthus retroflexus); experiment: Test A preemergence, pigweed; assay type: in vivo; settings: Amaranthus retroflexus, pre-emergence, 240 h, 0 to 100 scale (0 no effect, 100 complete control), read-out: Plant response rating, Pigweed; for pest or weed control at 31 g/ha: 31 g ai/ha; for pest or weed control at 125 g/ha: 125 g ai/ha
[3] = tested on: rice (Oryza sativa); experiment: Test B flooded paddy test, rice; settings: Oryza sativa, read-out: Plant response rating, Rice (0 to 100 scale, 0 is no effect, 100 is complete control)
[4] = tested on: blackgrass (Alopecurus myosuroides); experiment: Test A postemergence, blackgrass; assay type: in vivo; settings: Alopecurus myosuroides, post-emergence, 240 h, 0 to 100 scale (0 no effect, 100 complete control), read-out: Plant response rating, Blackgrass; for pest or weed control at 31 g/ha: 31 g ai/ha; for pest or weed control at 125 g/ha: 125 g ai/ha
[5] = tested on: galium (catchweed bedstraw, Galium aparine); experiment: Test A postemergence, galium; assay type: in vivo; settings: Galium, post-emergence, 240 h, 0 to 100 scale (0 no effect, 100 complete control), read-out: Plant response rating, Galium; for pest or weed control at 31 g/ha: 31 g ai/ha; for pest or weed control at 125 g/ha: 125 g ai/ha
[6] = tested on: corn (Zea mays); experiment: Test A postemergence, corn; assay type: in vivo; settings: Zea mays, post-emergence, 240 h, 0 to 100 scale (0 no effect, 100 complete control); for Corn plant response rating (crop injury, 0 = no effect, 100 = complete kill) at 31 g/ha: 31 g ai/ha; for Corn plant response rating (crop injury, 0 = no effect, 100 = complete kill) at 125 g/ha: 125 g ai/ha
[7] = tested on: pigweed (Amaranthus retroflexus); experiment: Test A postemergence, pigweed; assay type: in vivo; settings: Amaranthus retroflexus, post-emergence, 240 h, 0 to 100 scale (0 no effect, 100 complete control), read-out: Plant response rating, Pigweed; for pest or weed control at 31 g/ha: 31 g ai/ha; for pest or weed control at 125 g/ha: 125 g ai/ha
[8] = tested on: barnyardgrass (Echinochloa crus-galli); experiment: Test A preemergence, barnyardgrass; assay type: in vivo; settings: Echinochloa crus-galli, pre-emergence, 240 h, 0 to 100 scale (0 no effect, 100 complete control), read-out: Plant response rating, Barnyardgrass; for pest or weed control at 31 g/ha: 31 g ai/ha; for pest or weed control at 125 g/ha: 125 g ai/ha
[9] = tested on: barnyardgrass (Echinochloa crus-galli); experiment: Test B flooded paddy test, barnyardgrass; settings: Echinochloa crus-galli, read-out: Plant response rating, Barnyardgrass (0 to 100 scale, 0 is no effect, 100 is complete control)
[10] = tested on: barnyardgrass (Echinochloa crus-galli); experiment: Test A postemergence, barnyardgrass; assay type: in vivo; settings: Echinochloa crus-galli, post-emergence, 240 h, 0 to 100 scale (0 no effect, 100 complete control), read-out: Plant response rating, Barnyardgrass; for pest or weed control at 31 g/ha: 31 g ai/ha; for pest or weed control at 125 g/ha: 125 g ai/ha
[11] = tested on: ragweed (common ragweed, Ambrosia elatior); experiment: Test A postemergence, ragweed; assay type: in vivo; settings: Ambrosia artemisiifolia, post-emergence, 240 h, 0 to 100 scale (0 no effect, 100 complete control), read-out: Plant response rating, Ragweed; for pest or weed control at 31 g/ha: 31 g ai/ha; for pest or weed control at 125 g/ha: 125 g ai/ha
[12] = tested on: kochia (Kochia scoparia); experiment: Test A postemergence, kochia; assay type: in vivo; settings: Bassia scoparia, post-emergence, 240 h, 0 to 100 scale (0 no effect, 100 complete control), read-out: Plant response rating, Kochia; for pest or weed control at 31 g/ha: 31 g ai/ha; for pest or weed control at 125 g/ha: 125 g ai/ha
[13] = tested on: kochia (Kochia scoparia); experiment: Test A preemergence, kochia; assay type: in vivo; settings: Bassia scoparia, pre-emergence, 240 h, 0 to 100 scale (0 no effect, 100 complete control), read-out: Plant response rating, Kochia; for pest or weed control at 31 g/ha: 31 g ai/ha; for pest or weed control at 125 g/ha: 125 g ai/ha
[14] = tested on: ryegrass, Italian (Italian ryegrass, Lolium multiflorum); experiment: Test A postemergence, ryegrass, Italian; assay type: in vivo; settings: Lolium multiflorum, post-emergence, 240 h, 0 to 100 scale (0 no effect, 100 complete control), read-out: Plant response rating, Ryegrass, Italian; for pest or weed control at 31 g/ha: 31 g ai/ha; for pest or weed control at 125 g/ha: 125 g ai/ha
[15] = tested on: ryegrass, Italian (Italian ryegrass, Lolium multiflorum); experiment: Test A preemergence, ryegrass, Italian; assay type: in vivo; settings: Lolium multiflorum, pre-emergence, 240 h, 0 to 100 scale (0 no effect, 100 complete control), read-out: Plant response rating, Ryegrass, Italian; for pest or weed control at 31 g/ha: 31 g ai/ha; for pest or weed control at 125 g/ha: 125 g ai/ha
[16] = tested on: ducksalad (Heteranthera limosa); experiment: Test B flooded paddy test, ducksalad; settings: Heteranthera limosa, read-out: Plant response rating, Ducksalad (0 to 100 scale, 0 is no effect, 100 is complete control)
[17] = tested on: ragweed (common ragweed, Ambrosia elatior); experiment: Test A preemergence, ragweed; assay type: in vivo; settings: Ambrosia artemisiifolia, pre-emergence, 240 h, 0 to 100 scale (0 no effect, 100 complete control), read-out: Plant response rating, Ragweed; for pest or weed control at 31 g/ha: 31 g ai/ha; for pest or weed control at 125 g/ha: 125 g ai/ha
[18] = tested on: foxtail, green (green foxtail, Setaria viridis); experiment: Test A postemergence, foxtail, green; assay type: in vivo; settings: Setaria, post-emergence, 240 h, 0 to 100 scale (0 no effect, 100 complete control), read-out: Plant response rating, Foxtail, Green; for pest or weed control at 31 g/ha: 31 g ai/ha; for pest or weed control at 125 g/ha: 125 g ai/ha

FC(F)(F)CCCC1OCc2cccc(Oc3ncc(Cl)cn3)c21 (stereo not drawn) [Compound 7, 5-chloro-2-[[1,3-dihydro-3-(4,4,4-trifluorobutyl)-4-isobenzofuranyl]oxy]-pyrimidine]
40%: plant injury at 250 g/ha [3] | Corn plant response rating (crop injury, 0 = no effect, 100 = complete kill) at 125 g/ha [6] | pest or weed control at 250 g/ha [9]
90%: pest or weed control at 125 g/ha [8] | pest or weed control at 31 g/ha [12] | pest or weed control at 125 g/ha [18]
30%: plant injury at 125 g/ha [1] | pest or weed control at 31 g/ha [18]
70%: pest or weed control at 125 g/ha [4]
60%: pest or weed control at 125 g/ha [10] | pest or weed control at 125 g/ha [14]
100%: pest or weed control at 125 g/ha [2] | pest or weed control at 125 g/ha [5] | pest or weed control at 125 g/ha [7] | pest or weed control at 125 g/ha [12] | pest or weed control at 125 g/ha [13] | pest or weed control at 250 g/ha [16]
80%: pest or weed control at 31 g/ha [7]
10%: plant injury at 31 g/ha [1] | pest or weed control at 31 g/ha [4]
50%: pest or weed control at 31 g/ha [5] | pest or weed control at 125 g/ha [15]
0%: pest or weed control at 31 g/ha [11] | pest or weed control at 125 g/ha [11] | pest or weed control at 31 g/ha [13] | pest or weed control at 31 g/ha [15] | pest or weed control at 31 g/ha [17] | pest or weed control at 125 g/ha [17]
20%: pest or weed control at 31 g/ha [2] | Corn plant response rating (crop injury, 0 = no effect, 100 = complete kill) at 31 g/ha [6] | pest or weed control at 31 g/ha [8] | pest or weed control at 31 g/ha [10] | pest or weed control at 31 g/ha [14]

FC(F)(F)CCC1OCc2cccc(Oc3ncc(Cl)cn3)c21 (stereo not drawn) [Compound 8, 5-Chloro-2-[[1,3-dihydro-3-(3,3,3-trifluoropropyl)-4-isobenzofuranyl]oxy]pyrimidine]
20%: plant injury at 250 g/ha [3] | pest or weed control at 125 g/ha [11] | pest or weed control at 31 g/ha [13] | pest or weed control at 31 g/ha [18]
30%: pest or weed control at 31 g/ha [4] | pest or weed control at 31 g/ha [5]
90%: pest or weed control at 125 g/ha [12]
80%: pest or weed control at 125 g/ha [5] | pest or weed control at 31 g/ha [8] | pest or weed control at 31 g/ha [12]
70%: pest or weed control at 125 g/ha [15] | pest or weed control at 125 g/ha [18]
100%: pest or weed control at 31 g/ha [2] | pest or weed control at 125 g/ha [2] | pest or weed control at 125 g/ha [4] | pest or weed control at 31 g/ha [7] | pest or weed control at 125 g/ha [7] | pest or weed control at 125 g/ha [8] | pest or weed control at 125 g/ha [13] | pest or weed control at 250 g/ha [16]
0%: plant injury at 31 g/ha [1] | pest or weed control at 31 g/ha [17]
10%: Corn plant response rating (crop injury, 0 = no effect, 100 = complete kill) at 31 g/ha [6] | pest or weed control at 31 g/ha [10] | pest or weed control at 31 g/ha [11] | pest or weed control at 31 g/ha [14] | pest or weed control at 31 g/ha [15] | pest or weed control at 125 g/ha [17]
50%: plant injury at 125 g/ha [1] | Corn plant response rating (crop injury, 0 = no effect, 100 = complete kill) at 125 g/ha [6] | pest or weed control at 125 g/ha [10] | pest or weed control at 125 g/ha [14]
35%: pest or weed control at 250 g/ha [9]
